Measurements from patent US8822440B2, “Inhibiting cyclin D polypeptides” (Mayo Foundation for Medical Education and Research, priority 2006, dated 2014).

Assays:
caspase 9 = test: Immunoblot of caspase 9 cleavage in HMCL; type: cell-based, human; details: HMCL and CD138+ patient myeloma cells
Experimental: Immunoblotting. Cytosolic extracts were prepared from HMCL or purified patient CD138^+ myeloma cells following exposure to kinetin riboside. Cells were washed with cold PBS, resuspended in cold RIPA buffer (5×10^6 cells/100 μL) containing fresh protease and phosphatase inhibitors (Santa Cruz Biotechnology, Santa Cruz, Calif.) and incubated on ice for 30 minutes with gentle mixing. The supernatant was repossessed following high speed centrifugation, and protein concentrations were determined by the Bradford assay. Immunoblot assays were performed as described elsewhere (Krajewski et al., Anal. Biochem., 236:221-228 (1996)). Briefly, equal amounts of protein were separated by SDS-PAGE and transferred to a PVDF nitrocellulose membrane using a semi-dry apparatus. Membranes were blocked using 5% skim milk in Tris buffered saline and probed with monoclonal mouse anti-cyclin D1 (DCS-6, Biosource, Camarillo, Calif.), polyclonal rabbit anti-cyclin D2 (#2924, Cell Signalling Technology), monoclonal mouse anti-cyclin D3 (DCS-22, BioSource), polyclonal rabbit anti-c-Maf (M-153, Santa Cruz), polyclonal rabbit anti-Cleaved Caspase 9 (Asp315) (Cell Signaling Technology), monoclonal mouse anti-β-actin (Cell Signaling Technology) and/or monoclonal anti-a-tubulin (B-7)(Santa Cruz Biotechnology, Santa Cruz, Calif.). […]

H929 and U266 HMCL = test: Gene expression profiling (Affymetrix) of H929 and U266; type: cell-based, human; details: 5 μM, 4 hours
Experimental: Gene expression profiling. H929 and U266 HMCL were treated with kinetin riboside (5 μM), an unrelated cytotoxic pristimerin (0.5 μM), or DMSO vehicle for 4 hours under normal culture conditions. RNA was then isolated using Trizol and further purified by Qiagen column, according to the manufacturer's instructions and was assessed using a BioAnalyzer 2100 (Agilent Technologies, Palo Alto, Calif.). Microarray hybridization using Affymetrix Hg_U133—2+ chips (Affymetrix, Santa Clara, Calif.) was performed as described elsewhere (Abraham et al., Blood 105, 794-803 (2005)). Gene expression intensity values were log transformed, normalized by chip and by cell line to DMSO-control treated samples and analyzed using GeneSpring 7 (Agilent Technologies, Palo Alto, Calif.). Expression values were filtered by raw intensity level to exclude non-expressed probe-sets with raw expression within one log (10) of the minimum level observed. Only probe sets with sub-threshold intensities in all samples (treated and untreated) were excluded.
Analysis of CREM gene variant transcript expression. […]

My5 tumors = test: My5 myeloma xenograft in nude mice; type: in vivo; details: for effect on My5 tumors: 85 mg/kg/dose
Experimental: (§1) FIG. 14. Kinetin riboside induces tumor growth arrest in My5 and 8226 myeloma tumor xenografts. (A) Matched pairs of nude mice bearing My5 tumors were treated intra-peritoneally (i.p.) with vehicle control (□) or with kinetin riboside (▪) at escalating dose-density from 100 mg/kg once daily to 85mg/kg 5×/daily, administered 5 days per week, commencing after mean tumor volume reached 135mm^3. Mean tumor volumes±SEM are shown from the time of xenografting (n=4/group). (B) Nude mice bearing 8226 tumors were treated with vehicle (□) or with kinetin riboside (▪) (n=4/group), commencing at 85 mg/kg QID (i.p. and s.c.) when the mean tumor volume exceeded 135 mm^3.
(§2) Female nude X-linked immune-deficient (BNX) mice purchased from NCI-Frederick were used for in vivo studies. Animals had access to food and water ad libitum and were handled in accordance with animal care and use guidelines. Eight-week-old mice were inoculated with My5 or 8226 (2×10^7) MM cells subcutaneously (s.c.) in the right flank. Kinetin riboside (pre-dissolved in DMSO at 500 mg/mL and stored at −20° C.) was formulated daily by dropwise dissolution to 3.7 mg/mL in pre-warmed (37° C.) 0.9% saline, 1% β2-hydroxypropylcyclodextrin (Sigma) solution and was administered 1×-5× daily at 85 mg/kg/dose. The first dose daily was given intraperitoneally and remaining doses were given s.c. with increasing dosing intervals (30, 60, 120, 180 minutes). Tumor volumes were measured using vernier calipers and calculated with the formula L×W×H×2/3. P-values were calculated by paired t-test (JMP 6.0, SAS; Cary, N.C.).

8226 tumors = test: 8226 myeloma xenograft in nude mice; type: in vivo
Experimental: as §1, with “(B) Nude mice bearing 8226 tumors were treated with vehicle (□) or with kinetin riboside (▪) (n=4/group), commencing at 85 mg/kg QID (i.p. and s.c.) when the mean tumor volume exceeded 135 mm^3.” left out
as §2

[1] = Tolerability of kinetin riboside in xenografted BNX mice; type: in vivo
Experimental: as §2
The anti-tumor activity of kinetin riboside in vivo was evaluated against My5 and 8226 human myeloma tumors grown as xenografts in nude mice. Drug or vehicle were initially administered once daily with dosing up to100 mg/kg/day, however, no effect on 8226 or My5 (FIG. 14A) tumor growth was observed. […] Xenograft studies were then repeated with 8226 tumors using kinetin riboside 85 mg/kg 4× daily upfront, started when tumors had reached a mean volume of 135 mm^3 (FIG. 14B). […] No effects on neutrophil counts (at 14 days treatment) or on body weight were observed.

Aqueous solubility = type: physicochemical
[2] = once daily, up to 100 mg/kg/day

OC[C@H]1O[C@@H](n2cnc3c(NCc4ccco4)ncnc32)[C@H](O)[C@@H]1O [kinetin riboside, N6-Furfuryladenosine]
time to caspase-9 cleavage (caspase 9): ≤ 16 h
CREM isoform expression (H929 and U266 HMCL): preferential induction of CREM isoforms
number of genes with 3-fold or greater change in expression in both H929 and U266 (H929 and U266 HMCL): approximately 35 genes
effect on My5 tumors (My5 tumors; 4× daily dosing): tumor stasis
effect on My5 tumors (My5 tumors; 5x daily dosing): regression of tumors
effect on My5 tumor growth (My5 tumors; [2]): no effect
effect on 8226 tumors compared to vehicle-treated mice (8226 tumors; 85 mg/kg 4× daily upfront, p<0.01): Statistically significant tumor growth inhibition
effect on 8226 tumor growth (8226 tumors; [2]): no effect
effect on neutrophil counts ([1]; at 14 days treatment): No effects
effect on body weight ([1]; mouse, in vivo): No effects
tolerability of rapidly repeated doses ([1]; up to five per day at 85 mg/kg/dose): well tolerated
aqueous solubility (Aqueous solubility): limited aqueous solubility at high concentration
